Reference: patent publication US10975123B2, “Mutant Akt-specific capture agents, compositions, and methods of using and making” (California Institute of Technology, priority 2014, dated 2021)
Where a SMILES comes first, the peptide text is derived from it. [ ]: non-standard residue; d: D form.

What was measured:
full length Akt1E17K = full length Akt1E17K (Homo sapiens, UniProt P31749, E17K); assay: Fluorescence polarization binding to full-length E17K Akt1; conditions: yleaf peptide 4, fluorescence polarization in solution, triplicate
Sequence of full length Akt1E17K (P31749 whole entry E17K): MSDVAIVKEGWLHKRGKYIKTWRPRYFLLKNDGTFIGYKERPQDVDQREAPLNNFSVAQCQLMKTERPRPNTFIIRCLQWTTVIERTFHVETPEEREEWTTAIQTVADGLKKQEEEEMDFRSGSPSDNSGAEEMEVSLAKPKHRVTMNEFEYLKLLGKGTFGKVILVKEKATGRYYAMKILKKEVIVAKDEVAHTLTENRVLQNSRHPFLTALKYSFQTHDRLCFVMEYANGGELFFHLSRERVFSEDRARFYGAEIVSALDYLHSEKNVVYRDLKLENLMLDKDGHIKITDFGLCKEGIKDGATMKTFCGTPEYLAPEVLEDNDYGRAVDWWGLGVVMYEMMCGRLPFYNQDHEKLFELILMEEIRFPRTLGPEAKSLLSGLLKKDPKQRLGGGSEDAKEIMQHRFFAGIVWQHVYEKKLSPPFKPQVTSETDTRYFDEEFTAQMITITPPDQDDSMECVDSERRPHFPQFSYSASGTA
Protocol: FIG. 2: Anchor ligand structure and characterization. (FIG. 2A) The peptide anchor ligand, yleaf (SEQ ID NO: 43), which was discovered using the epitope-targeting technique. The different sets of R groups indicate the modifications that were made to perform the various experiments described. (FIG. 2B) Point ELISA for specificity obtained by immobilizing biotinylated yleaf (SEQ ID NO: 43) anchor ligand 2 onto a Neutravidin plate, then incubating with a 6 His-tagged epitope (“6 His” disclosed as SEQ ID NO: 4) 3. […] (FIG. 2C) Binding curves of yleaf (SEQ ID NO: 43) anchor ligand 4 to the full-length WT or E17K mutant Akt1 proteins obtained in solution by fluorescence polarization. A saturation point for the WT ligand was not reached due to the prohibitively high protein concentration required. (FIG. 2D) Full binding curves of yleaf (SEQ ID NO: 43) anchor ligand 4 to the WT or E17K mutant epitopes. […] All assays were performed in triplicate and averaged. Error bars indicate standard deviation.
FIG. 5: The PCC agent triligand development strategy, structure, and inhibition data. (FIG. 5A) The yleaf (SEQ ID NO: 43) anchor ligand with a C-terminal alkyne 2 was screened against an azide-terminated library in the presence of the full-length PH Domain to identify a biligand. The biligand 7 was then appended with an N-terminal azide and screened against an alkyne library to identify a triligand. […]

[1] = target: T1, wildtype PH Domain (PHD) of Akt1 (Homo sapiens, UniProt P31749); assay: Streptavidin-agarose immunoprecipitation (pulldown), WT; type: binding; conditions: streptavidin agarose, 1xTBS, western blot band size, in words
T1 construct: The first 124 N-terminal amino acids from full length Akt1 were used as the PH Domain DNA; made in house; host or cells: E. coli
T1 sequence (P31749 1-124): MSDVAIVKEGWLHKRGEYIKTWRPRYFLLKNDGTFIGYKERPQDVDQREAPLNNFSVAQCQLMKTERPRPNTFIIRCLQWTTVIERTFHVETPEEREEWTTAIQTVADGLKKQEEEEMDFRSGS
Protocol: Four biligand candidates were chosen based on their hydrophobicity and sequence homology using principal component analysis (FIG. 25). Biligands were synthesized by coupling the 2° ligand onto Rink Amide Resin on the Titan peptide synthesizer. The amide group on the end of the Lys(N3) was capped by shaking the resin with 2 mL acetic anhydride, 2 mL NMP and 0.5 mL DIEA for 3×10 minutes, then washed with NMP. FMOC-Propargylglycine-Otbu (Pra) was clicked onto the Lys(N3) on the 2° ligand by incubating 2 eq of the Pra amino acid with 2 eq CuI and 2 eq ascorbic acid with 1 eq azide on resin in 20% piperidine/NMP for 3 hours. The resin was washed 5×4 mL with a chelating solution of 1 g sodium diethyldithiocarbamate in 20 mL NMP and 1 mL DIEA. The anchor was then built onto the 2° ligand on bead, and an N-terminal PEG5-biotin tag were added. Assays were performed exactly as for the anchor ligands, except for two key differences. The biligand assays were done with 6 ug of GST-tagged PHD protein, instead of the untagged PHD that was used in the anchor pulldowns. The pull-downs were also conducted out of 1% serum in 1×TBS, as opposed to just 1×TBS.
Pulldown assays were done on Streptavidin Agarose resin from Invitrogen. The resin was incubated with N-terminal biotinylated anchor peptide candidates identified via the ClusterLigand sequence analysis. The anchor candidate coated beads were then incubated with either the wildtype or mutant protein to compare the selectivity of the ligands, as well as the binding ability. The bound protein was eluted and western blotted to compare the amount of protein present for each sample.
Relative protein band sizes were analyzed to compare binding between the anchor candidates and were used to determine selectivity for either wildtype or mutant PH Domain (FIG. 11). […] Both of these ligands look fairly selective for their respective PH Domain.

[2] = tested on: E17K 33-mer epitope vs WT 33-mer epitope (6His-tagged); assay: Point ELISA with anchor ligand and 33-mer epitope; type: binding; conditions: PEG-biotin-modified yleaf on neutravidin plate; epitope 100 nM-1 μM, in words
Protocol: The selectivity of the yleaf (SEQ ID NO: 43) peptide for the E17K 33-mer epitope was also tested in an ELISA assay format. For these assays, the WT or E17K 33-mer peptide fragments were captured using the PEG-biotin-modified yleaf (SEQ ID NO: 43) ligand immobilized on a neutravidin-coated plate.
For these assays, 100 nM Biotin-PEG5-yleaf (SEQ ID NO: 43) (FIG. 12) was immobilized for one hour on a neutravidin-coated ELISA plate (Pierce). The plate was blocked in 5% BSA in 1×TBS for one hour, then again overnight at room temperature. The immobilized anchor was then incubated with either 1 μM or 100 nM wildtype 33-mer epitope or 1 μM or 100 nM E17K mutant 33-mer epitope for one hour. The plate was washed three times with 1×TBS+0.1% Tween-20 and tapped dry. The epitope was then detected by a 1:1,000 dilution of an anti-his mouse mAb (ab18184, Abcam) for one hour, washed as above, and then detected with 1:10,000 dilution of an anti-mouse HRP-conjugated goat pAb (Abcam) for one hour. The plate was once again washed and developed with a 1:1 TMB substrate (KMB) for 15 minutes. To graph the data, the blank (epitope and antibodies binding to plate with no anchor ligand present) was subtracted from the triplicate sample values. […] The triplicate values were then graphed (FIG. 1C) with their error bars and the p-values were calculated by GraphPad.

CC(C)C[C@@H](NC(=O)[C@H](N)Cc1ccc(O)cc1)C(=O)N[C@H](CCC(=O)O)C(=O)N[C@H](C)C(=O)N[C@H](Cc1ccccc1)C(N)=O [yleaf] (H-[dY][dL][dE][dA][dF]-NH2; N-terminus assumed)
Kd (full length Akt1E17K): 54 ± 7 nM
pulldown of wildtype PH Domain by biotinylated anchor candidates [1]: the least binding to the wildtype
selectivity for E17K 33-mer fragment over WT in point ELISA [2]: significant selectivity for the E17K fragment over the WT
